Test results taken from PubChem BioAssay (NCI).
Several values for one entry are separate records, joined by “and”; a condition that tells them apart may be missing. Identical values can stand only once.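 Grown in 96-well plates, cells were treated for 48 hours with each compound at five concentrations. Insufficient inhibition: endpoint recorded as highest concentration tested. GI50 is the concentration that inhibits growth by half. Definition used: TGI = concentration required for complete inhibition of growth.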

Key:
Assay in all cases: NCI tumour cell line growth inhibition, 48 h
OVCAR-4 ovarian = system: OVCAR-4 ovarian
OVCAR-8 ovarian = system: OVCAR-8 ovarian
SK-OV-3 ovarian = system: SK-OV-3 ovarian
COLO 205 colon = system: COLO 205 colon
A549 NSCLC = system: A549 NSCLC
786-0 renal = system: 786-0 renal
SW-620 colon = system: SW-620 colon
EKVX NSCLC = system: EKVX NSCLC
HOP-92 NSCLC = system: HOP-92 NSCLC
RXF 393 renal = system: RXF 393 renal
NCI-H23 lung = system: NCI-H23 lung
PC-3 prostate = system: PC-3 prostate
T-47D breast = system: T-47D breast
A498 renal = system: A498 renal
NCI-H226 lung = system: NCI-H226 lung
SR leukemia = system: SR leukemia
CCRF-CEM leukemia = system: CCRF-CEM leukemia
SN12C renal = system: SN12C renal
SNB-75 CNS = system: SNB-75 CNS
MCF7 breast = system: MCF7 breast
HT29 colon = system: HT29 colon
RPMI-8226 leukemia = system: RPMI-8226 leukemia
SF-539 CNS = system: SF-539 CNS
M14 melanoma = system: M14 melanoma
NCI-H460 lung = system: NCI-H460 lung
OVCAR-3 ovarian = system: OVCAR-3 ovarian
HS 578T breast = system: HS 578T breast
MDA-MB-231 breast = system: MDA-MB-231 breast
SK-MEL-5 melanoma = system: SK-MEL-5 melanoma

Cc1ccc(NC(=O)c2ccc(CN3CC[C@H](N(C)C)C3)c(C(F)(F)F)c2)cc1Nc1nccc(-c2cncnc2)n1
GI50 (OVCAR-4 ovarian): 10.9 µM and > 10 µM | TGI (OVCAR-4 ovarian): 30.1 µM and > 10 µM | GI50 (OVCAR-8 ovarian): 13.8 µM and > 10 µM | TGI (OVCAR-8 ovarian): 36.1 µM and > 10 µM | GI50 (SK-OV-3 ovarian): 16 µM and > 10 µM | TGI (SK-OV-3 ovarian): 32.1 µM and > 10 µM | GI50 (COLO 205 colon): 0.331 µM and 0.423 µM | TGI (COLO 205 colon): 6.65 µM and > 10 µM | GI50 (A549 NSCLC): 11.3 µM and > 10 µM | TGI (A549 NSCLC): 28.5 µM and > 10 µM | GI50 (786-0 renal): 6.11 µM and 6.67 µM | TGI (786-0 renal): 14.9 µM and > 10 µM | GI50 (SW-620 colon): 6.15 µM and > 10 µM | TGI (SW-620 colon): 22.1 µM and > 10 µM | GI50 (EKVX NSCLC): 14.6 µM and > 10 µM | TGI (EKVX NSCLC): 40 µM and > 10 µM | GI50 (HOP-92 NSCLC): 5.1 µM and 1.66 µM | TGI (HOP-92 NSCLC): 22 µM and > 10 µM | GI50 (RXF 393 renal): 11.9 µM and 9.4 µM | TGI (RXF 393 renal): 27 µM and > 10 µM | GI50 (NCI-H23 lung): 5.61 µM and 8.08 µM | TGI (NCI-H23 lung): 26.5 µM and > 10 µM | GI50 (PC-3 prostate): 13.4 µM and > 10 µM | TGI (PC-3 prostate): 35 µM and > 10 µM | GI50 (T-47D breast): 5.16 µM and > 10 µM | TGI (T-47D breast): 12.2 µM and > 10 µM | GI50 (A498 renal): 12.1 µM and > 10 µM | TGI (A498 renal): 27.1 µM and > 10 µM | GI50 (NCI-H226 lung): 15.2 µM and > 10 µM | TGI (NCI-H226 lung): 36.6 µM and > 10 µM | GI50 (SR leukemia): 2.79 µM and 1.99 µM | TGI (SR leukemia): > 24.4 µM and 5.04 µM | GI50 (CCRF-CEM leukemia): 7.23 µM and 4.55 µM | TGI (CCRF-CEM leukemia): 30.9 µM and > 10 µM | GI50 (SN12C renal): 14.2 µM and > 10 µM | TGI (SN12C renal): 34.4 µM and > 10 µM | GI50 (SNB-75 CNS): 10.3 µM and > 10 µM | TGI (SNB-75 CNS): 22.8 µM and > 10 µM | GI50 (MCF7 breast): 6.63 µM and > 10 µM | TGI (MCF7 breast): 24.6 µM and > 10 µM | GI50 (HT29 colon): 0.606 µM and 0.637 µM | TGI (HT29 colon): 15.7 µM and > 10 µM | GI50 (RPMI-8226 leukemia): 5.08 µM and 4.4 µM | TGI (RPMI-8226 leukemia): 24 µM and > 10 µM | GI50 (SF-539 CNS): 4.5 µM and 6.26 µM | TGI (SF-539 CNS): 9.34 µM and > 10 µM | GI50 (M14 melanoma): 0.425 µM and 0.668 µM | TGI (M14 melanoma): 4.9 µM and > 10 µM | GI50 (NCI-H460 lung): 2.99 µM and 8.15 µM | TGI (NCI-H460 lung): 9.95 µM and > 10 µM | GI50 (OVCAR-3 ovarian): 6.12 µM and 8.64 µM | TGI (OVCAR-3 ovarian): 20.5 µM and > 10 µM | GI50 (HS 578T breast): 7.62 µM and 2.23 µM | TGI (HS 578T breast): 35.6 µM and > 10 µM | GI50 (MDA-MB-231 breast): 1.42 µM and 1.98 µM | TGI (MDA-MB-231 breast): 7.82 µM and > 10 µM | GI50 (SK-MEL-5 melanoma): 3.79 µM and 4.05 µM | TGI (SK-MEL-5 melanoma): 9.07 µM and > 10 µM
